Measured values taken from US12612389B2, “Benzofuran-based N-acylhydrazone derivative and pharmaceutical composition comprising same” (KOREA RESEARCH INSTITUTE OF BIOSCIENCE AND BIOTECHNOLOGY, priority 2019, dated 2026).
Values belong to the compound of their own block, whether it stands above or below them.

Key:
HeLa cells = test: Anti-proliferative activity test in HeLa cell line (MTT); format: cell-based; conditions: Homo sapiens, 48 h, grown for 2 days, mean of 2
Experimental: HeLa cells (American Type Culture Collection: ATCC, USA), a human cervical cancer cell line, were seeded in a 96-well plate at 3×10^3 cells/well, and the cells were then treated with compounds of Examples or Comparative Example according to the present invention and grown for 2 days. Then, MTT (3-(4,5-dimethylthiazol-2-yl)-2,5-diphenyltetrazolium bromide) reagent was added at 10 μL/well. After 2 hours, absorbance was measured at “OD 450” and statistical values were obtained using Prism™6 program. The data shown in Table below are mean values of results obtained by repeating the analysis twice.

Stability test in plasma [1] = format: in vitro ADME; conditions: Rat plasma, 37° C.; for Residue % (180 minutes elapsed), Mean: 5 mM
Experimental: (§1) In order to test the stability (in vivo) of the Example compounds according to the present invention, the compounds of Examples 2, 3, 4, 8 and 15 were administered intravenously, and plasma concentrations over time were observed. In addition, procaine was used as a positive control. Plasma stability was measured three times by administering the test compound at a concentration of 5 mM to human, rat, or mouse plasma (90 μL) at 37° C. Results thereof are shown in Table below and FIGS. 3A to 3E.

[2] = Stability in buffer (line of the metabolic stability test); format: in vitro ADME
Experimental: (§2) The test compounds at a concentration of […] were administered in the presence or absence of NADPH (1 mM) to liver […] (0.5 mg protein/mL) of humans, rats and mice, and metabolic stability was tested at 37° C. for 30 minutes. In addition, buspirone was used as a positive control. Results thereof are shown in Table below and FIGS. 4A to 4E.

Stability test in plasma [3] = format: in vitro ADME; parameters: Residue % (180 minutes elapsed), Mean: dose or concentration left out as unconfirmed; conditions: 37° C.
Experimental: as §1, with “of 5 mM” left out

[4] = Metabolic stability test in liver microsomes; format: in vitro ADME; conditions: 0.5 mg protein/mL, 37° C.
Experimental: as §2

K562/ADR = test: Anti-proliferative activity test in cancer cells exhibiting multidrug resistance (MTT); format: cell-based; conditions: for Resistance Factor: ratio IC50 K562/ADR to IC50 K562
Experimental: (§3) HeLa cells (American Type Culture Collection: ATCC, USA), a human cervical cancer cell line, were seeded in a 96-well plate at 3×10^3 cells/well, and the cells were then treated with compounds of Examples or Comparative Example according to the present invention and grown for 2 days. Then, MTT (3-(4,5-dimethylthiazol-2-yl)-2,5-diphenyltetrazolium bromide) reagent was added at 10 μL/well. […] The data shown in Table below are mean values of results obtained by repeating the analysis twice. Specifically, K562 and MCF7 (Bio Evaluation Center, Korea Research Institute of Bioscience and Biotechnology, Korea) and multidrug-resistant cell lines of each of these cell lines, i.e., K562/ADR and MCF7/ADR (Bio Evaluation Center, Korea Research Institute of Bioscience and Biotechnology, Korea), were cultured on microtiter plates (1-3×10^3 cells/well). […] The data shown in Table below are mean values of results obtained by repeating the analysis three times.

MCF7/ADR = test: as above; format: cell-based; conditions: for Resistance Factor: ratio IC50 MCF7/ADR to IC50 MCF7
Experimental: as §3

K562 = test: Anti-proliferative activity test in cancer cells exhibiting multidrug resistance (MTT), parent line; format: cell-based; conditions: Homo sapiens, 96 h, 4 days
Experimental: as §3

MCF7 = test: as above; format: cell-based; conditions: Homo sapiens, 96 h, 4 days
Experimental: as §3

IC50 (HeLa cells): 3.88 µM
SMILES: Cc1ccc2oc(C(=O)N/N=C/c3c(Cl)[nH]c4ccccc34)cc2c1 [Example 1, (E)-N′-[(2-chloro-1H-indol-3-yl)methylene]-5-methylbenzofuran-2-carbohydrazide]

IC50 (HeLa cells): 4.52 µM
SMILES: CCOCCn1c(Cl)c(/C=N/NC(=O)c2cc3cc(NC(C)=O)ccc3o2)c2ccccc21 [Example 19, (E)-N′-{2-[2-((2-chloro-1-(2-ethoxyethyl)-1H-indol-3-yl)methylene]hydrazine-1-carbonyl}benzofuran-5-yl)acetamide]

half-life at 5 mM (Stability test in plasma [1]): > 3 h
Residue % (180 minutes elapsed), Mean (Stability test in plasma [1]): 75.82%
Residue (%) after culturing for 30 min [2]: 77.94 ± 7.04%
IC50 (HeLa cells): 0.892 µM
Residue % (180 minutes elapsed), Mean (Stability test in plasma [3]; Human plasma): 90.43%
half-life at 5 mM (Stability test in plasma [3]; Human plasma): > 3 h
Residue % (180 minutes elapsed), Mean (Stability test in plasma [3]; Mouse plasma): 55.82%
half-life at 5 mM (Stability test in plasma [3]; Mouse plasma): > 3 h
Residue (%) after culturing for 30 min ([4]; Human, +NADPH): 8.69 ± 0.44%
Residue (%) after culturing for 30 min ([4]; Human, −NADPH): 36.40 ± 1.90%
Residue (%) after culturing for 30 min ([4]; Mouse, +NADPH): 2.84 ± 0.34%
Residue (%) after culturing for 30 min ([4]; Mouse, −NADPH): 11.59 ± 1.06%
Residue (%) after culturing for 30 min ([4]; Rat, +NADPH): 2.99 ± 0.64%
Residue (%) after culturing for 30 min ([4]; Rat, −NADPH): 41.45 ± 0.93%
SMILES: Cc1ccc2oc(C(=O)N/N=C/c3c(Cl)n(C)c4ccccc34)cc2c1 [Example 2, (E)-N′-[(2-chloro-1-methyl-1H-indol-3-yl)methylene]-5-methylbenzofuran-2-carbohydrazide]

SMILES: COc1cc2c(c(OC)c1OC)-c1ccc(OC)c(=O)cc1[C@@H](NC(C)=O)CC2 [Colchicine, colchicine]
Resistance Factor (K562/ADR): 22.91
Resistance Factor (MCF7/ADR): 34.15

IC50 (HeLa cells): 0.5 µM
SMILES: CCOC(=O)Cn1c(C)c(/C=N/NC(=O)c2cc3c(OC)cc(OC)cc3o2)c2ccccc21 [Example 20, (E)-ethyl-2-(3-((2-(4,6-dimethoxybenzofuran-2-carbonyl) hydrazinylidene)methyl)-2-methyl-1H-indol-1-yl)acetate]

IC50 (K562/ADR; Homo sapiens, 96 h, K562/ADR (multidrug-resistant), 4 days, MTT): 2.19 µM
IC50 (MCF7/ADR; Homo sapiens, NCI/ADR-RES, 96 h, MCF7/ADR (multidrug-resistant), 4 days, MTT): 2.61 µM
IC50 (K562): 0.00285 µM
IC50 (MCF7): 0.0154 µM
SMILES: COc1cccc2c1C(=O)c1c(O)c3c(c(O)c1C2=O)C[C@@](O)(C(=O)CO)C[C@@H]3O[C@H]1C[C@H](N)[C@H](O)[C@H](C)O1 [Doxorubicin, doxorubicin]
Resistance Factor (K562/ADR): 767.91
Resistance Factor (MCF7/ADR): 169.57

IC50 (HeLa cells): 1.22 µM
SMILES: CCOCCn1c(C(F)(F)F)c(/C=N/NC(=O)c2cc3cc(C)ccc3o2)c2ccccc21 [Example 6, (E)-N′-{[1-(2-ethoxyethyl)-2-(trifluoromethyl)-1H-indol-3-yl]methylene}-5-methylbenzofuran-2-carbohydrazide]

IC50 (HeLa cells): 0.262 µM
SMILES: CCOCCn1c(Cl)c(/C=N/NC(=O)c2cc3cc(OC)ccc3o2)c2ccccc21 [Example 14, (E)-N′-[(2-chloro-1-(2-ethoxyethyl)-1H-indol-3-yl]methylene}-5-methoxybenzofuran-2-carbohydrazide]

IC50 (HeLa cells): 0.243 µM
SMILES: CCOCCn1c(Cl)c(/C=N/NC(=O)c2cc3cc(C)ccc3o2)c2cc(Cl)ccc21 [Example 11, (E)-N′-[(2,5-dichloro-1-(2-ethoxyethyl)-1H-indol-3-yl]methylene}-5-methylbenzofuran-2-carbohydrazide]

IC50 (HeLa cells): 0.563 µM
SMILES: CCOCCn1c(Cl)c(/C=N/NC(=O)c2cc3c(OC)cc(OC)cc3o2)c2ccccc21 [Example 18, (E)-N′-[(2-chloro-1-(2-ethoxyethyl)-1H-indol-3-yl]methylene}-4,6-dimethoxybenzofuran-2-carbohydrazide]

IC50 (HeLa cells): 0.233 µM
SMILES: COCCn1c(Cl)c(/C=N/NC(=O)c2cc3cc(C)ccc3o2)c2ccccc21 [Example 7, (E)-N′-[(2-chloro-1-(2-methoxyethyl)-1H-indol-3-yl]methylene}-5-methylbenzofuran-2-carbohydrazide]

IC50 (HeLa cells): 0.221 µM
SMILES: CCOCCn1c(Cl)c(/C=N/NC(=O)c2cc3cc(C)ccc3o2)c2cc(F)ccc21 [Example 10, (E)-N′-[(2-chloro-1-(2-ethoxyethyl)-5-fluoro-1H-indol-3-yl]methylene}-5-methylbenzofuran-2-carbohydrazide]

IC50 (HeLa cells): 0.337 µM
SMILES: CCOCCn1c(Cl)c(/C=N/NC(=O)c2cc3cc(C)ccc3o2)c2cc(C)ccc21 [Example 13, (E)-N′-[(2-chloro-1-(2-ethoxyethyl)-5-methyl-1H-indol-3-yl]methylene}-5-methylbenzofuran-2-carbohydrazide]

Residue (%) after culturing for 30 min ([4]; Human, +NADPH): 2.21 ± 0.03%
Residue (%) after culturing for 30 min ([4]; Human, −NADPH): 91.06 ± 0.40%
Residue (%) after culturing for 30 min ([4]; Mouse, +NADPH): 0.32 ± 0.05%
Residue (%) after culturing for 30 min ([4]; Mouse, −NADPH): 94.74 ± 0.74%
Residue (%) after culturing for 30 min ([4]; Rat, +NADPH): 0.41 ± 0.02%
Residue (%) after culturing for 30 min ([4]; Rat, −NADPH): 93.08 ± 1.21%
SMILES: O=C1CC2(CCCC2)CC(=O)N1CCCCN1CCN(c2ncccn2)CC1 [Buspirone, buspirone, reference compound]

half-life at 5 mM (Stability test in plasma [1]): 0.0767 h
Residue % (180 minutes elapsed), Mean (Stability test in plasma [1]): 0.21%
Residue (%) after culturing for 30 min [2]: 89.02 ± 4.39%
IC50 (HeLa cells): 0.243 µM
Residue % (180 minutes elapsed), Mean (Stability test in plasma [3]; Human plasma): 56.52%
half-life at 5 mM (Stability test in plasma [3]; Human plasma): > 3 h
Residue % (180 minutes elapsed), Mean (Stability test in plasma [3]; Mouse plasma): 0.12%
half-life at 5 mM (Stability test in plasma [3]; Mouse plasma): 0.0933 h
Residue (%) after culturing for 30 min ([4]; Human, +NADPH): 12.34 ± 0.69%
Residue (%) after culturing for 30 min ([4]; Human, −NADPH): 22.26 ± 0.72%
Residue (%) after culturing for 30 min ([4]; Mouse, +NADPH): 2.50 ± 0.11%
Residue (%) after culturing for 30 min ([4]; Mouse, −NADPH): 6.81 ± 0.17%
Residue (%) after culturing for 30 min ([4]; Rat, +NADPH): 1.39 ± 0.12%
Residue (%) after culturing for 30 min ([4]; Rat, −NADPH): 8.53 ± 0.46%
SMILES: CCOC(=O)Cn1c(Cl)c(/C=N/NC(=O)c2cc3cc(C)ccc3o2)c2ccccc21 [Example 3, ethyl (E)-2-{2-chloro-3-[(2-(5-methylbenzofuran-2-carbonyl)hydrazinylidene)methyl]-1H-indol-1-yl}acetate]

IC50 (HeLa cells): 0.619 µM
SMILES: CCOCCn1c(Cl)c(/C=N/NC(=O)c2cc3cc(C)ccc3o2)c2cc(OC(F)(F)F)ccc21 [Example 12, (E)-N′-[(2-chloro-1-(2-ethoxyethyl)-5-(trifluoromethoxy)-1H-indol-3-yl]methylene}-5-methylbenzofuran-2-carbohydrazide]

IC50 (HeLa cells): 0.455 µM
SMILES: CCOCCn1c(Cl)c(/C=N/NC(=O)c2cc3cc(Cl)ccc3o2)c2ccccc21 [Example 16, (E)-5-chloro-N′-{[2-chloro-1-(2-ethoxyethyl)-1H-indol-3-yl]methylene}benzofuran-2-carbohydrazide]

IC50 (HeLa cells): 0.562 µM
SMILES: CCOC(=O)Cn1c(C)c(/C=N/NC(=O)c2cc3c(ccc4ccccc43)o2)c2ccccc21 [Comparative Example 1, (E)-ethyl 2-(2-methyl-3-((2-(naphtho[2,1-b]furan-2-carbonyl)hydrazono)methyl)-1H-indol-1-yl)acetate, reference compound]

IC50 (HeLa cells): 0.263 µM
SMILES: CCOCCn1c(Br)c(/C=N/NC(=O)c2cc3cc(C)ccc3o2)c2ccccc21 [Example 5, (E)-N′-[(2-bromo-1-(2-ethoxyethyl)-1H-indol-3-yl]methylene}-5-methylbenzofuran-2-carbohydrazide]

IC50 (HeLa cells): 0.232 µM
SMILES: CCOCCn1c(Cl)c(/C=N/NC(=O)c2cc3cc(C)ccc3o2)c2ccc(OC)cc21 [Example 9, (E)-N′-[(2-chloro-1-(2-ethoxyethyl)-6-methoxy-1H-indol-3-yl]methylene}-5-methylbenzofuran-2-carbohydrazide]

Residue % (180 minutes elapsed), Mean (Stability test in plasma [1]): 1.89%
Residue % (180 minutes elapsed), Mean (Stability test in plasma [3]; Human plasma): 0.45%
Residue % (180 minutes elapsed), Mean (Stability test in plasma [3]; Mouse plasma): 1.06%
SMILES: CCN(CC)CCOC(=O)c1ccc(N)cc1 [Procaine, procaine, reference compound]
